According to patent publication US12655107B2 (The United States of America, as represented by the …, priority 2018, dated 2026):
Like-named read-outs stand apart in the source and are kept apart here.

Legend:
Top1 = biological target: T1, Top1 (Homo sapiens, UniProt P11387); assay: Top1-mediated DNA cleavage assay; assay type: biochemical; settings: graded relative to CPT at 1 μM, Table 7
T1 sequence (P11387 1-765): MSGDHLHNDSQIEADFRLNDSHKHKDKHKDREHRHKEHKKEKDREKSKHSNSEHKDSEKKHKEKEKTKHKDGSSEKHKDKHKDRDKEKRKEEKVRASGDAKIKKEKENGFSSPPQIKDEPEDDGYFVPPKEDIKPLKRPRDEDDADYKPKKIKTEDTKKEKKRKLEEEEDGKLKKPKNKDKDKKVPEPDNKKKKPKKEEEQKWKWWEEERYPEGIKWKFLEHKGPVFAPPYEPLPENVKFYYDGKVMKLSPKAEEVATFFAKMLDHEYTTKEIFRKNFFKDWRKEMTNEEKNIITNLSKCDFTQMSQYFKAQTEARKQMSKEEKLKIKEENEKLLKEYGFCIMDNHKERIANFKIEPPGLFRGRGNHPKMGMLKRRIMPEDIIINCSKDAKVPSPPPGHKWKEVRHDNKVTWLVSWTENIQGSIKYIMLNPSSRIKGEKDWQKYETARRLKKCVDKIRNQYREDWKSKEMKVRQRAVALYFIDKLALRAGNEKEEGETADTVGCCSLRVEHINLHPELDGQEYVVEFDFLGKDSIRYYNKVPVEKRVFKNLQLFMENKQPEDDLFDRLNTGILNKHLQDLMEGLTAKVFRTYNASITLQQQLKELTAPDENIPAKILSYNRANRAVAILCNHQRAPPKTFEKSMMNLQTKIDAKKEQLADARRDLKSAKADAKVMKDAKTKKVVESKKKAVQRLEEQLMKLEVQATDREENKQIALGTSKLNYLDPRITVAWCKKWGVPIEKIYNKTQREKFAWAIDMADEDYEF

SK-MEL-28 = assay: NCI-60 cytotoxicity; assay type: cell-based, human; settings: NCI-60 Melanoma, 48 h
Method: (§1) Cell growth inhibition (GI50 in Table 3) was calculated relative to cells without compound treatment and the time zero control.
(§2) Regarding Table 8, according to the NCI established procedures, the cells were incubated with 67 or 50 for 48 hours and stained with sulforhodamine B dye.

UACC-62 = assay: NCI-60 cytotoxicity; assay type: cell-based, human; settings: NCI-60 Melanoma, 48 h
Method: as §1, §2

T-47D = assay: NCI-60 cytotoxicity; assay type: cell-based, human; settings: NCI-60 Breast Cancer, 48 h
Method: as §1, §2

NCI/ADR-RES = assay: NCI-60 cytotoxicity; assay type: cell-based, human; settings: NCI-60 Ovarian Cancer, 48 h
Method: as §1, §2

CCRF-CEM = assay: NCI-60 cytotoxicity; assay type: cell-based, human; settings: NCI-60 Leukemia, 48 h
Method: as §1, §2

SK-OV-3 = assay: NCI-60 cytotoxicity; assay type: cell-based, human; settings: NCI-60 Ovarian Cancer, 48 h
Method: as §1, §2

MALME-3M = assay: NCI-60 cytotoxicity; assay type: cell-based, human; settings: read-out: GI50 (μM) MALME-3M; NCI-60 Melanoma, 48 h
Method: as §1, §2

LOX IMVI = assay: NCI-60 cytotoxicity; assay type: cell-based, human; settings: NCI-60 Melanoma, 48 h
Method: as §1, §2

M14 = assay: NCI-60 cytotoxicity; assay type: cell-based, human; settings: NCI-60 Melanoma, 48 h
Method: as §1, §2

OVCAR-3 = assay: NCI-60 cytotoxicity; assay type: cell-based, human; settings: NCI-60 Ovarian Cancer, 48 h
Method: as §1, §2

NCI-H522 = assay: NCI-60 cytotoxicity; assay type: cell-based, human; settings: NCI-60 Non-Small Cell Lung Cancer, 48 h
Method: as §1, §2

SW-620 = assay: NCI-60 cytotoxicity; assay type: cell-based, human; settings: NCI-60 Colon Cancer, 48 h
Method: as §1, §2

BT-549 = assay: NCI-60 cytotoxicity; assay type: cell-based, human; settings: NCI-60 Breast Cancer, 48 h
Method: as §1, §2

MCF7 = assay: NCI-60 cytotoxicity; assay type: cell-based, human; settings: NCI-60 Breast Cancer, 48 h
Method: as §1, §2

SK-MEL-5 = assay: NCI-60 cytotoxicity; assay type: cell-based, human; settings: NCI-60 Melanoma, 48 h
Method: as §1, §2

OVCAR-8 = assay: NCI-60 cytotoxicity; assay type: cell-based, human; settings: NCI-60 Ovarian Cancer, 48 h
Method: as §1, §2

SNB-75 = assay: NCI-60 cytotoxicity; assay type: cell-based, human; settings: NCI-60 CNS Cancer, 48 h
Method: as §1, §2

MDA-MB-435 = assay: NCI-60 cytotoxicity; assay type: cell-based, human; settings: NCI-60 Melanoma, 48 h
Method: as §1, §2

SR = assay: NCI-60 cytotoxicity; assay type: cell-based, human; settings: NCI-60 Leukemia, 48 h
Method: as §1, §2

SF-295 = assay: NCI-60 cytotoxicity; assay type: cell-based, human; settings: NCI-60 CNS Cancer, 48 h
Method: as §1, §2

A549/ATCC = assay: NCI-60 cytotoxicity; assay type: cell-based, human; settings: NCI-60 Non-Small Cell Lung Cancer, 48 h
Method: as §1, §2

NCI-H460 = assay: NCI-60 cytotoxicity; assay type: cell-based, human; settings: NCI-60 Non-Small Cell Lung Cancer, 48 h
Method: as §1, §2

786-0 = assay: NCI-60 cytotoxicity; assay type: cell-based, human; settings: NCI-60 Renal Cancer, 48 h
Method: as §1, §2

NCI-60 cell lines = assay: NCI-60 cytotoxicity, mean graph midpoint; settings: read-out: GI50 (μM) MGM; mean graph midpoint of all cell lines, 48 h, sulforhodamine B
HCT116 = assay: MTT cytotoxicity assay, HCT116; assay type: cell-based, human
Method: Cytotoxicity Assays. […] The cells were incubated with the tested compounds for 72 hours in a five-dose assay ranging from 0.01 to 100 μM concentration. After drug treatments, MTT solution was added to test the percentage growth of tumor cells.
(§3) The compounds were incubated with the cells for 72 hours in a five-dose assay ranging from 0.01 to 100 μM concentration. At the end of the incubation, the MTT solution was added to test the percentage growth of tumor cells.
(§4) For the drug treatment experiments, the cancer cells were treated with the compounds (predissolved in DMSO) at a five-dose assay ranging from 0.01 to 100 μM concentration. […] After 4 h incubation, the formazan crystal formed in the well was dissolved with […] of DMSO for optical density reading at 570 nm. The GI50 value was calculated by nonlinear regression analysis (GraphPad Prism).

MCF-7 = assay: MTT cytotoxicity assay, MCF-7; assay type: cell-based, human
Method: as §3, §4

[1] = 72 h, Table 7, read-out: GI50 ± SC (μM) HCT116
[2] = 72 h, Table 7, read-out: GI50 ± SC (μM) MCF-7

SMILES | TOP1 inhibition (Top1) | GI50 (SK-MEL-28) [µM] | GI50 (UACC-62) [µM] | GI50 (T-47D) [µM] | GI50 (NCI/ADR-RES) [µM] | GI50 (CCRF-CEM) [µM] | GI50 (SK-OV-3) [µM] | GI50 (MALME-3M) [µM] | GI50 (LOX IMVI) [µM] | GI50 (M14) [µM] | GI50 (OVCAR-3) [µM] | GI50 (NCI-H522) [µM] | GI50 (SW-620) [µM] | GI50 (BT-549) [µM] | GI50 (MCF7) [µM] | GI50 (SK-MEL-5) [µM] | GI50 (OVCAR-8) [µM] | GI50 (SNB-75) [µM] | GI50 (MDA-MB-435) [µM] | GI50 (SR) [µM] | further results
COc1cc2c(=O)n(CCN)c3c4cc5c(cc4ccc3c2cc1OC)OCO5 [Compound 67, 12-(2-aminoethyl)-2,3-dimethoxy-[1,3]dioxolo[4′,5′:4,5]benzo[1,2-c]phenanthridin-13(12-H)-one] | ++ (++, between 50% and 75% activity) | 3.05 | 0.278 | 0.368 | 1.01 | 0.15 | 1.24 | 0.613 | 0.246 | 0.324 | 0.826 | 0.0875 | 0.243 | 0.918 | 0.164 | 0.614 | 0.93 | 0.596 | 0.759 | 0.0907 | GI50 (SF-295): 0.279 µM; GI50 (A549/ATCC): 0.584 µM; GI50 (NCI-H460): 0.23 µM; GI50 (786-0): 0.464 µM; GI50 (NCI-60 cell lines): 0.525 µM; GI50 (HCT116; [1]): 0.29 ± 0.019 µM; GI50 (MCF-7; [2]): 0.1 ± 0.001 µM
CNCCn1c(=O)c2cc(OC)c(OC)cc2c2ccc3cc4c(cc3c21)OCO4 [Compound 50, 2,3-dimethoxy-12-(2-(methylamino)ethyl)-[1,3]dioxolo[4′5′:4,5]benzo[1,2-c]phenanthridin-13(12H)-one] | +++ (+++, between 75% and 95% activity) | 0.573 | 0.0451 | 0.0757 | 0.165 | 0.0201 | 0.157 | 0.174 | 0.0389 | 0.0581 | 0.166 | 0.0274 | 0.0658 | 0.202 | 0.0292 | 0.0909 | 0.132 | 0.0885 | 0.118 | 0.0173 | GI50 (SF-295): 0.0346 µM; GI50 (A549/ATCC): 0.0948 µM; GI50 (NCI-H460): 0.0212 µM; GI50 (786-0): 0.0703 µM; GI50 (NCI-60 cell lines): 0.0977 µM; GI50 (HCT116; [1]): 0.036 µM; GI50 (HCT116; drug-resistance panel, read-out: GI50 ± SD (μM) Parental cell line HCT116): 0.036 ± 0.003 µM; GI50 (MCF-7; [2]): 0.09 µM; GI50 (MCF-7; drug-resistance panel, read-out: GI50 ± SD (μM) Parental cell line MCF-7): 0.1 ± 0.001 µM
